Results reported in patent US20250188040A1, “PHARMACEUTICAL COMPOSITIONS COMPRISING WRN HELICASE INHIBITORS” (Vividion Therapeutics, Inc., priority 2022, published 2025).
Like-named read-outs stand apart in the source and are kept apart here.

Experiments:
HCT 116 cells = test: Cell growth assay (CellTiter-Glo 2.0), HCT 116 MSI-H cell line; settings: Homo sapiens, HCT-116, 120 h, read-out: Cell Growth Inhibition GI50 HCT-116
SW480 cells = test: Cell growth assay (CellTiter-Glo 2.0), SW480 MSS cell line; settings: Homo sapiens, SW480, 120 h, read-out: Cell Growth Inhibition GI50 SW480
Protocol: The effects of compound on cellular viability were determined using the CellTiter-Glo® 2.0 Luminescent Cell Viability Assay (Promega, Madison, WI).
SW480 cells were seeded at 1,000 cells per well in Eagle's Minimum Essential Medium (EMEM) with 10% FBS. Both cell lines were seeded in a volume of 50 μL medium per well. […] The concentration range was adjusted as needed for compounds of different potencies. The cells treated with compounds were incubated for 5 days at 37° C. in 5% CO2. […] The plate was then read on a Clariostar plate reader (BMG Labtech, Cary, NC) in luminescence mode. The previously measured baseline cell viability was subtracted from the luminescence value of each well, and cell viability (% of DMSO) was plotted as a function of log compound concentration. The EC50 was then calculated for each compound using Dotmatics Software (San Diego, CA).

[1] = molecular target: hWRN(519-1227)_C-H3CV-GFP-10His (Homo sapiens, UniProt Q14191); test: Helicase Assay for WRN Inhibition (ATP-dependent, fluorescence based)
Chain of hWRN(519-1227)_C-H3CV-GFP-10His (Q14191 519-1227): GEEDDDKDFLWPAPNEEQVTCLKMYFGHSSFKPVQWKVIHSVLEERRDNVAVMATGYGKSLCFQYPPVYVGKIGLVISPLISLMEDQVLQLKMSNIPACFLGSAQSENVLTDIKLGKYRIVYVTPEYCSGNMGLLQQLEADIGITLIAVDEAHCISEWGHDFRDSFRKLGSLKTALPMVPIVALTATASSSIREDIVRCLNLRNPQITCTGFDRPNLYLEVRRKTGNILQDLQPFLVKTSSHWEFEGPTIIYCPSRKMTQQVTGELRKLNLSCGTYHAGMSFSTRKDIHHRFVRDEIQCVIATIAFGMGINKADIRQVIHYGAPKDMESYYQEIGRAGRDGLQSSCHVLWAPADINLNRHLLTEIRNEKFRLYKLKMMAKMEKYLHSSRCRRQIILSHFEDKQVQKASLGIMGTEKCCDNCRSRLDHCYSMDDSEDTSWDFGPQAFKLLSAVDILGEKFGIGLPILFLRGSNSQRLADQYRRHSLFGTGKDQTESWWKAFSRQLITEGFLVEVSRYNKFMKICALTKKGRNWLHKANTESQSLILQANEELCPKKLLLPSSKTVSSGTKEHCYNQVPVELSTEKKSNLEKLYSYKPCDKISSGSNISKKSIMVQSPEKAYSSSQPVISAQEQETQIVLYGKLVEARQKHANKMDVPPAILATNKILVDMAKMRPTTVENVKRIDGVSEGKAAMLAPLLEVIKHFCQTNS

WRN C727 = molecular target: T1, WRN C727 (Homo sapiens, UniProt Q14191); test: Target engagement, in vitro (lysate), OCI-AML2; format: binding; settings: read-out: OCI-AML2 WRN C727 TE50 in vitro (lysate)
T1 construct: endogenous in cells; host or cells: OCI-AML2
T1 sequence (Q14191 whole entry): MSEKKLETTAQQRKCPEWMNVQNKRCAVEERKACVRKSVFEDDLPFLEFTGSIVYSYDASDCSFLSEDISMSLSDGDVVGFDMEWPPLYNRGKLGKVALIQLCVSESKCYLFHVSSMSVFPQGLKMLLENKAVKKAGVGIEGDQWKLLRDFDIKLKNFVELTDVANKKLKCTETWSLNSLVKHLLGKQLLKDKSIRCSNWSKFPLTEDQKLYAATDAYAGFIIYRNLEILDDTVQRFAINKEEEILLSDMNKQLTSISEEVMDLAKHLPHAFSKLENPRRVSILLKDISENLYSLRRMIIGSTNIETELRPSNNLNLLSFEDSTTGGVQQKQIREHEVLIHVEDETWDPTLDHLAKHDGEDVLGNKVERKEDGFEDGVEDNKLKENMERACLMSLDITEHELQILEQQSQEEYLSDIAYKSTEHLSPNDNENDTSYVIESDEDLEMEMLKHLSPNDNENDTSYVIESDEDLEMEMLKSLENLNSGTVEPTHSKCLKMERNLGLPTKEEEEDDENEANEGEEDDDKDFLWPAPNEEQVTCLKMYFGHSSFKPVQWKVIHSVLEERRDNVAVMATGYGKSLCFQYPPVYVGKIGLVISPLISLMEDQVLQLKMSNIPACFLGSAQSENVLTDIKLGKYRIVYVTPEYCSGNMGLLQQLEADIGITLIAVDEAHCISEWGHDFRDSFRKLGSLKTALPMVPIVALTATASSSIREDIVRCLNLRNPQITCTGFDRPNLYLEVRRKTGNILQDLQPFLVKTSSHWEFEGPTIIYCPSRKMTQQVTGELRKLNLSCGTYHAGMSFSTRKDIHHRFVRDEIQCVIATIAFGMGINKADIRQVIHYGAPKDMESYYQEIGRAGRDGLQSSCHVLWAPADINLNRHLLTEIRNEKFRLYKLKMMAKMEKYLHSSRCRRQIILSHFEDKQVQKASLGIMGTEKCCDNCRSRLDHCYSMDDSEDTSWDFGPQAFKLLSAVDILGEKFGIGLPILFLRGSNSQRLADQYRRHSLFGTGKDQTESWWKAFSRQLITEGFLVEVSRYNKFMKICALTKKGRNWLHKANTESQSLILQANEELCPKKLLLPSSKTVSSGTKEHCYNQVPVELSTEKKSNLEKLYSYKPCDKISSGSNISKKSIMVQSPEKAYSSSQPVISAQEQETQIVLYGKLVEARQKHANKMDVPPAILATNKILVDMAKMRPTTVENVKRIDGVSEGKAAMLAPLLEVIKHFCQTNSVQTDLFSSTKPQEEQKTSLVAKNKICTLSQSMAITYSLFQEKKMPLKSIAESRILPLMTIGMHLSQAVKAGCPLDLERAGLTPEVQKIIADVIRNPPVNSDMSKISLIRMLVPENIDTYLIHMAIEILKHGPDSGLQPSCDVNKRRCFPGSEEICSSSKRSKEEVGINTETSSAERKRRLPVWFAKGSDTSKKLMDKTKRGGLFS
Protocol: Cells or cell lysates were treated with a dose response of compound followed by probe treatment, which labels solvent exposed cysteines. Proteins were enzymatically digested with trypsin and probe-labelled peptides were enriched with streptavidin. Isolated peptides were then separated using reversed-phase liquid chromatography on a C18 column (Dionex Ultimated 3000 nano-LC, Thermo). Peptides were analyzed by parallel reaction monitoring mass spectrometry (Exploris 120, Thermo).
Target engagement (%) is calculated relative to DMSO treated control samples.

[2] = WRN Helicase IC50, 30 min preincubation with ATP, 30 min reaction

Row | GI50 (HCT 116 cells) [nM] | GI50 (SW480 cells) [nM] | IC50 [1, 2] [nM] | IC50 (WRN C727) [nM] | IC50 [1] [nM] | SMILES
1 | 1400 | 8200 | 2200 | 9620 | – | C[C@@H]1CC[C@H](c2ncc(C(=O)N[C@@H](C)/C=C/S(C)(=O)=O)c(Oc3ccccc3)n2)C1 (racemic) [Example 215]
2 | 745 | 15400 | 1700 | 9360 | – | CS(=O)(=O)/C=C/[C@H](Cc1ccccc1)NC(=O)c1cnc(C2CC2)nc1Oc1ccccc1 (single isomer, unassigned) [Example 20]
3 | 3100 | 14000 | 6100 | > 100000 | – | CS(=O)(=O)/C=C\[C@H](Cc1ccccc1)NC(=O)c1cnc(C2CC2)nc1Oc1ccccc1 (single isomer, unassigned) [Example 21]
4 | 1100 | 2800 | – | 8830 | 3400 | CS(=O)(=O)/C=C\C1CN(C(=O)c2cnc(C3CC3)nc2Oc2ccccc2)C1 (single isomer, unassigned) [Example 23, (Z)-(2-cyclopropyl-4-phenoxypyrimidin-5-yl)(3-(2-(methylsulfonyl)vinyl)azetidin-1-yl)methanone]
5 | 7700 | > 10000 | – | > 100000 | 20000 | CS(=O)(=O)/C=C/C1CN(C(=O)c2cnc(C3CC3)nc2Oc2ccccc2)C1 (single isomer, unassigned) [Example 24, (E)-(2-cyclopropyl-4-phenoxypyrimidin-5-yl)(3-(2-(methylsulfonyl)vinyl)azetidin-1-yl)methanone]
6 | 124 | > 11900 | 287 | 990 | – | C[C@@H](/C=C/S(C)(=O)=O)NC(=O)c1cnc([C@H]2C[C@@H](C)C2)nc1Oc1ccccc1 (single isomer, unassigned) [Example 46]
7 | 292 | > 12600 | 770 | 990 | – | C[C@@H](/C=C/S(C)(=O)=O)NC(=O)c1cnc([C@H]2C[C@H](C)C2)nc1Oc1ccccc1 (single isomer, unassigned) [Example 47]
8 | 36.5 | 5970 | 62 | 35 | – | CS(=O)(=O)/C=C/[C@@H](NC(=O)c1cnc([C@H]2C[C@@H](C)C2)nc1Oc1ccccc1)C1CC1 (single isomer, unassigned) [Example 48]
9 | 60.2 | 5190 | 92 | 220 | – | CS(=O)(=O)/C=C/[C@@H](NC(=O)c1cnc([C@H]2C[C@H](C)C2)nc1Oc1ccccc1)C1CC1 (single isomer, unassigned) [Example 49]
10 | 94.7 | 7500 | – | 280 | 220 | CS(=O)(=O)C=C1CN(C(=O)c2cnc([C@H]3C[C@@H](C)C3)nc2Oc2ccccc2)C1 (single isomer, unassigned) [Example 50, (2-((1s,3s)-3-methylcyclobutyl)-4-phenoxypyrimidin-5-yl)(3-((methylsulfonyl)methylene)azetidin-1-yl)methanone]
11 | 184 | 8520 | – | 3300 | 450 | CS(=O)(=O)C=C1CN(C(=O)c2cnc([C@H]3C[C@H](C)C3)nc2Oc2ccccc2)C1 (single isomer, unassigned) [Example 51, (2-((1r,3r)-3-methylcyclobutyl)-4-phenoxypyrimidin-5-yl)(3-((methylsulfonyl)methylene)azetidin-1-yl)methanone]
12 | 200 | 13000 | 410 | 2870 | – | CC(C)(C)c1ncc(C(=O)N[C@H](/C=C/S(C)(=O)=O)Cc2ccccc2)c(Oc2ccccc2)n1 (single isomer, unassigned) [Example 60]
13 | 1300 | 7500 | 3500 | > 100000 | – | CC(C)(C)c1ncc(C(=O)N[C@H](/C=C\S(C)(=O)=O)Cc2ccccc2)c(Oc2ccccc2)n1 (single isomer, unassigned) [Example 61]
14 | 5700 | 8600 | – | 20000 | 11000 | CC(/C=C/S(C)(=O)=O)NC(=O)c1cc(F)c(C2=CCCC2)nc1Oc1ccccc1 (stereo in doubt) [Example 206, (R,E)-6-(cyclopent-1-en-1-yl)-5-fluoro-N-(4-(methylsulfonyl)but-3-en-2-yl)-2-phenoxynicotinamide]
15 | 1160 | > 19500 | 2700 | 14000 | – | CC(C)[C@@H](/C=C/S(C)(=O)=O)NC(=O)c1cnc(C2CCCC2)nc1Oc1ccccc1 [Example 7, (S,E)-2-cyclopentyl-N-(4-methyl-1-(methylsulfonyl)pent-1-en-3-yl)-4-phenoxypyrimidine-5-carboxamide]
16 | 44 | 6720 | 75.8 | 195 | – | CS(=O)(=O)/C=C/[C@@H](NC(=O)c1cnc(C2CCCC2)nc1Oc1ccccc1)C1CC1 [Example 8, (S,E)-2-cyclopentyl-N-(1-cyclopropyl-3-(methylsulfonyl)allyl)-4-phenoxypyrimidine-5-carboxamide]
17 | 43 | 15000 | 160 | 310 | – | CS(=O)(=O)/C=C/[C@@H](NC(=O)c1cnc(C2CCCC2)nc1Oc1ccccc1)C1CCC1 [Example 9, (S,E)-N-(1-cyclobutyl-3-(methylsulfonyl)allyl)-2-cyclopentyl-4-phenoxypyrimidine-5-carboxamide]
18 | 72.4 | 27400 | 130 | 240 | – | COC[C@@H](/C=C/S(C)(=O)=O)NC(=O)c1cnc(C2CCCC2)nc1Oc1ccccc1 [Example 10, (R,E)-2-cyclopentyl-N-(1-methoxy-4-(methylsulfonyl)but-3-en-2-yl)-4-phenoxypyrimidine-5-carboxamide]
19 | 140 | 36000 | 1100 | – | – | CS(=O)(=O)/C=C/[C@@H](NC(=O)c1cnc(OC2CC2)nc1Oc1ccccc1)C1CC1 [Example 245, (S,E)-2-cyclopropoxy-N-(1-cyclopropyl-3-(methylsulfonyl)allyl)-4-phenoxypyrimidine-5-carboxamide]
20 | 640 | 16000 | 8000 | – | – | CS(=O)(=O)/C=C/[C@@H](NC(=O)c1cnc(OCC(F)(F)F)nc1Oc1ccccc1)C1CC1 [Example 246, (S,E)-N-(1-cyclopropyl-3-(methylsulfonyl)allyl)-4-phenoxy-2-(2,2,2-trifluoroethoxy)pyrimidine-5-carboxamide]
21 | 1700 | 3000 | 6500 | – | – | Cc1cc(C(=O)N[C@@H](C)/C=C/S(C)(=O)=O)c(Oc2ccccc2)nc1C1CCCC1 [Example 262, (S,E)-6-cyclopentyl-5-methyl-N-(4-(methylsulfonyl)but-3-en-2-yl)-2-phenoxynicotinamide]
22 | 1400 | 2300 | 5500 | – | – | C[C@@H](C#CC(=O)N(C)C)NC(=O)c1cnc(C(C)(F)F)nc1Oc1ccccc1 [Example 263, (S)-2-(1,1-difluoroethyl)-N-(5-(dimethylamino)-5-oxopent-3-yn-2-yl)-4-phenoxypyrimidine-5-carboxamide]
23 | 3500 | 3900 | 8000 | – | – | C=C(CNC(=O)c1cnc(C2CC2)nc1Oc1ccccc1)S(C)(=O)=O [Example 287, 2-cyclopropyl-N-(2-(methylsulfonyl)allyl)-4-phenoxypyrimidine-5-carboxamide]
